Experimental data published in patent publication US11596611B2, “Hepatitis B antiviral agents” (ENANTA PHARMACEUTICALS, INC., priority 2017, dated 2023).

How the values were obtained:
HBV = test: HepAD38 antiviral assay: reduction of viral product accumulation (virion DNA by qPCR, HBsAg or HBeAg by ELISA); format: cell-based, hepatitis B virus; details: Hepatitis B virus, 120 h; HepAD38 cells, five days after compound addition; 50% reduction of viral product vs no drug controls; read-out: HepAD38 EC50
In short: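 Readouts were qPCR of lysed virion DNA plus ELISA for HBsAg or HBeAg, samples diluted into linear range. HepAD38 cells, washed free of tetracycline, received compound diluted 1:200 from DMSO for 5 days; 8-day variant refreshed media and compound on days 2 and 5.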

[1] = Compound toxicity by ATPLite (total ATP levels); format: cell-based; details: human, three days after compound addition, 50% reduction of total ATP
Procedure: Methods: HepAD38 cells are maintained as previously reported (Ladner et al, Antimicrob. Agents Chemother. 1997, […], 1715). Briefly, cells are passaged upon attaining confluency in DMEM/F12 media in the presence of 10% FBS, Penn/Strep, 250 μg/mL G418, and 1 ug/ml tetracycline. Novel compounds are screened by first washing cells three times with PBS to remove tetracycline, and plating in 96 well plates at 35,000 cells/well. Compounds dissolved in DMSO are then diluted 1:200 into wells containing cells. Five days after compound addition, material is harvested for analysis. For an extended 8 days analysis, cells are plated and treated as described above, but media and compound are refreshed on d2 and d5 post initial treatment.
Compound toxicity is evaluated by seeding cells at 15,000 cells/well and treating with compound as described above.

SMILES	EC50 (HBV) [nM]	CC50 at 3 days ([1]; numeric bounds) [nM]	CC50 at 3 days ([1]; class symbols) [nM]
C[C@@H](O)[C@@H](O)[C@]1(O)C2CCC1C[C@@H](S(=O)(=O)c1cc(C(=O)Nc3cc(F)c(F)c(F)c3)ccc1Cl)C2 (racemic) [Example 4]	< 104	> 12500	
C[C@@H](O)[C@H](O)COC[C@]1(O)C2CCC1C[C@@H](S(=O)(=O)c1cc(C(=O)Nc3cc(F)c(F)c(F)c3)ccc1Cl)C2 (single isomer, unassigned) [Example 163]	< 104		> 25000
C[C@@H](O)[C@H](O)COC[C@]1(O)C2CCC1C[C@@H](S(=O)(=O)c1cc(C(=O)Nc3cc(F)c(F)c(F)c3)ccc1Cl)C2 [Example 36]	< 104		> 25000
C=CCNC(=O)C[C@]1(O)C2CCC1C[C@@H](S(=O)(=O)c1cc(C(=O)Nc3cc(F)c(F)c(F)c3)ccc1Cl)C2 [Example 58]	< 104	> 12500	
C[C@H](O)[C@@H](O)[C@@]1(O)C2CC[C@H]1C[C@H](S(=O)(=O)c1cc(C(=O)Nc3cc(F)c(F)c(F)c3)ccc1Cl)C2 (single isomer, unassigned) [Example 137]	< 104	> 6250	
C[C@@H](O)[C@@H](O)[C@]1(O)C2CCC1C[C@@H](S(=O)(=O)c1cc(C(=O)Nc3ccc(F)c(F)c3)ccc1Cl)C2 (mixture of isomers) [Example 172]	< 104		> 25000
C[C@H](O)[C@@H](O)[C@]1(O)C2CCC1C[C@@H](S(=O)(=O)c1cc(C(=O)Nc3ccc(F)c(F)c3)ccc1Cl)C2 (mixture of isomers) [Example 173]	< 104	> 6250	
CC(O)CNC(=O)C[C@]1(O)C2CCC1C[C@@H](S(=O)(=O)c1cc(C(=O)Nc3cc(F)c(F)c(F)c3)ccc1Cl)C2 (some centres unmarked) [Example 54]	< 104		> 25000
CC(C)(O)C1CN(C(=O)C[C@]2(O)C3CCC2C[C@@H](S(=O)(=O)c2cc(C(=O)Nc4cc(F)c(F)c(F)c4)ccc2Cl)C3)C1 [Example 93]	< 104	> 6250	
CC(=O)N(C[C@@H](C)O)C[C@]1(O)C2CCC1C[C@@H](S(=O)(=O)c1cc(C(=O)Nc3cc(F)c(F)c(F)c3)ccc1Cl)C2 [Example 126]	< 104	> 6250	
O=C(Nc1cc(F)c(F)c(F)c1)c1ccc(Cl)c(S(=O)(=O)[C@H]2CC3CCC(C2)[C@]3(O)CNC(=O)C2CCOCC2)c1 [Example 89]	< 104	> 6250	
O=C(Nc1cc(F)c(F)c(F)c1)c1ccc(Cl)c(S(=O)(=O)[C@H]2CC3CCC(C2)[C@]3(O)CNC(=O)C2CCCOC2)c1 (some centres unmarked) [Example 90]	< 104	> 6250	
O=C(C[C@]1(O)C2CCC1C[C@@H](S(=O)(=O)c1cc(C(=O)Nc3cc(F)c(F)c(F)c3)ccc1Cl)C2)N[C@@H]1CCOC1 [Example 73]	< 104	> 6250	
C[C@H](O)C(=O)NC[C@]1(O)C2CCC1C[C@@H](S(=O)(=O)c1cc(C(=O)Nc3cc(F)c(F)c(F)c3)ccc1Cl)C2 [Example 13]	< 104	> 6250	
Cc1cccc(C(O)[C@@]2(O)C3CC[C@H]2C[C@H](S(=O)(=O)c2cc(C(=O)Nc4ccc(F)c(F)c4)ccc2Cl)C3)n1 (some centres unmarked) [Example 294]	< 104		> 25000
[2H]C1([2H])C2CCC(C([2H])([2H])[C@]1([2H])S(=O)(=O)c1cc(C(=O)Nc3ccc(F)c(F)c3)ccc1Cl)[C@@]2(O)CO [Example 279]	< 104		> 25000
C[C@@H](O)COC[C@]1(O)C2CCC1C[C@@H](S(=O)(=O)c1cc(C(=O)Nc3ccc(F)c(F)c3)ccc1Cl)C2 [Example 177]	< 104	> 6250	
Cc1ccnc(C(O)[C@@]2(O)C3CC[C@H]2C[C@H](S(=O)(=O)c2cc(C(=O)Nc4ccc(F)c(F)c4)ccc2Cl)C3)c1 (some centres unmarked) [Example 296]	< 104		> 25000
O=C(Nc1cc(F)c(F)c(F)c1)c1ccc(Cl)c(S(=O)(=O)[C@H]2CC3CCC(C2)[C@]3(O)COCCO)c1 [Example 62]	< 104	> 12500	
CC(O)C[C@@]1(O)C2CC[C@H]1C[C@H](S(=O)(=O)c1cc(C(=O)Nc3ccc(F)c(F)c3)ccc1Cl)C2 (some centres unmarked) [Example 218]	< 104		10000 to 25000
O=C(Nc1cc(F)c(F)c(F)c1)c1ccc(Cl)c(S(=O)(=O)[C@H]2CC3CCC(C2)[C@@]3(O)C(O)CO)c1 (mixture of isomers) [Example 10]	< 104	> 12500	
C[C@H](O)[C@@H](O)[C@]1(O)C2CCC1C[C@@H](S(=O)(=O)c1cc(C(=O)Nc3ccc(F)c(F)c3)ccc1Cl)C2 (single isomer, unassigned) [Example 182]	< 104		> 25000

SMILES	EC50 (HBV) [nM]	CC50 at 3 days ([1]; numeric bounds) [nM]	CC50 at 3 days ([1]; class symbols) [nM]
COC(=O)[C@H]1O[C@@H](OC[C@@]2(O)C3CC[C@H]2C[C@H](S(=O)(=O)c2cc(C(=O)Nc4ccc(F)c(F)c4)ccc2Cl)C3)[C@H](OC(C)=O)[C@@H](OC(C)=O)[C@@H]1OC(C)=O [Example 329]	< 104		> 25000
[2H]c1cc(F)c(F)c([2H])c1NC(=O)c1ccc(Cl)c(S(=O)(=O)[C@@H]2C([2H])([2H])C3CC[C@@H](C2([2H])[2H])[C@@]3(O)[C@@H](O)[C@H](C)O)c1 [Example 338]	< 104		> 25000
CC(=O)[C@@H](O)[C@@]1(O)C2CC[C@H]1C[C@H](S(=O)(=O)c1cc(C(=O)Nc3ccc(F)c(F)c3)ccc1Cl)C2 [Example 331]	< 104		> 25000
C[C@@H](O)CNC(=O)C[C@]1(O)C2CCC1C[C@@H](S(=O)(=O)c1cc(C(=O)Nc3ccc(F)c(C(F)F)c3)ccc1Cl)C2 [Example 155]	< 104		> 25000
O=C(C[C@]1(O)C2CCC1C[C@@H](S(=O)(=O)c1cc(C(=O)Nc3cc(F)c(F)c(F)c3)ccc1Cl)C2)N[C@H]1C[C@H](O)C1 [Example 111]	< 104	> 3000	
O=C(Nc1ccc(F)c(F)c1)c1ccc(Cl)c(S(=O)(=O)[C@H]2CC3CCC(C2)[C@]3(O)CNC(=O)c2nccs2)c1 [Example 168]	< 104		10000 to 25000
Cn1cc(C(O)[C@]2(O)C3CCC2C[C@@H](S(=O)(=O)c2cc(C(=O)Nc4ccc(F)c(F)c4)ccc2Cl)C3)cn1 (some centres unmarked) [Example 289]	< 104		> 25000
CC(C)=CCNC(=O)C[C@]1(O)C2CCC1C[C@@H](S(=O)(=O)c1cc(C(=O)Nc3cc(F)c(F)c(F)c3)ccc1Cl)C2 [Example 52]	< 104		> 25000
O=C(Nc1ccc(F)c(F)c1)c1ccc(Cl)c(S(=O)(=O)[C@@H]2CC3CC[C@@H](C2)[C@@]3(O)C(O)c2cnoc2)c1 (some centres unmarked) [Example 303]	< 104		> 25000
COC[C@@H](O)COC[C@]1(O)C2CCC1C[C@@H](S(=O)(=O)c1cc(C(=O)Nc3cc(F)c(F)c(F)c3)ccc1Cl)C2 [Example 122]	< 104		> 25000
O=C(Nc1ccc(F)c(F)c1)c1ccc(Cl)c(S(=O)(=O)[C@H]2CC3CCC(C2)[C@]3(O)[C@H](O)c2ccccn2)c1 (single isomer, unassigned) [Example 284b]	< 104		> 25000
C[C@H](O)COC[C@]1(O)C2CCC1C[C@@H](S(=O)(=O)c1cc(C(=O)Nc3ccc(F)c(F)c3)ccc1Cl)C2 [Example 176]	< 104	> 6250	
O=C(Nc1cc(F)c(F)c(F)c1)c1ccc(Cl)c(S(=O)(=O)[C@H]2CC3CCC(C2)[C@]3(O)CNC(=O)C2CCCCO2)c1 (some centres unmarked) [Example 91]	< 104		10000 to 25000
C[C@H](O)CNC(=O)C[C@]1(O)C2CCC1C[C@@H](S(=O)(=O)c1cc(C(=O)Nc3ccc(F)c(C(F)F)c3)ccc1Cl)C2 [Example 129]	< 104		> 25000
O=C(Nc1ccc(F)c(F)c1)c1ccc(F)c(S(=O)(=O)[C@@H]2CC3CC[C@@H](C2)[C@@]3(O)CO)c1 [Example 325]	< 104		> 25000
C[C@@H](O)[C@H](O)[C@]1(O)C2CCC1C[C@@H](S(=O)(=O)c1cc(C(=O)Nc3ccc(F)c(F)c3)ccc1Cl)C2 (single isomer, unassigned) [Example 183]	< 104		> 25000
O=C(Nc1ccc(F)c(F)c1)c1ccc(Cl)c(S(=O)(=O)[C@H]2CC3CCC(C2)[C@]3(O)C(O)c2ccc(F)cn2)c1 (some centres unmarked) [Example 291]	< 104		> 25000
C[C@H](O)CNC(=O)C[C@]1(O)C2CCC1C[C@@H](S(=O)(=O)c1cc(C(=O)Nc3cc(F)c(F)c(F)c3)ccc1Cl)C2 [Example 112]	< 104	> 6250	
C[C@@H](O)CNC(=O)C[C@]1(O)C2CCC1C[C@@H](S(=O)(=O)c1cc(C(=O)Nc3cc(F)c(F)c(F)c3)ccc1Cl)C2 [Example 113]	< 104	> 6250	
O=C(Nc1cc(F)c(F)c(F)c1)c1ccc(Cl)c(S(=O)(=O)[C@H]2CC3CCC(C2)[C@]3(O)CNC(=O)c2ncco2)c1 [Example 88]	< 104	> 6250	
C[C@H](O)[C@@H](O)[C@]1(O)C2CCC1C[C@@H](S(=O)(=O)c1cc(C(=O)Nc3cc(F)c(F)c(F)c3)ccc1Cl)C2 (racemic) [Example 5]	< 104	> 3000	
